We go through five molecules from article PMC8165695 (Journal of Medicinal Chemistry, 2021).

Where a SMILES comes first, the peptide text is derived from it. [ ]: non-standard residue; d: D form. The star is where a group is joined. Sta = CC(C)C[C@H](N)[C@@H](O)CC(=O)O; Isovaleryl = CC(C)CC(=O)*

Data set [1] relates to C. neoformans strains H99 and may1Δ. Briefly: Yeast culture activity assay. Type of data set: cell-based, Cryptococcus neoformans. Conditions: for terminal culture density of yeast: 48 h, 0.1, 1.0, 10 or 50 μM compound.
In another data set the test system is HepG2. In words: Cytotoxicity, CellTiter-Glo 2.0 Cell Viability Assay. Conditions: HepG2 cell line; comparators darunavir, amprenavir, indinavir (ref 40). The format is cell-based, human. Background: Cellular ATP, detected with luciferase, serves as a proxy for viable cell number.
The next data set deals with HIV-1 Pr wild-type. To be noted: cited from earlier work.
Data set [2] concerns the target HIV-1 Pr drug resistance-associated mutants. Conditions: cited from earlier work.
For another data set, the target named is T1, May1 (Cryptococcus neoformans, UniProt J9VS02).
T1 sequence (J9VS02 80-434 limits assumed): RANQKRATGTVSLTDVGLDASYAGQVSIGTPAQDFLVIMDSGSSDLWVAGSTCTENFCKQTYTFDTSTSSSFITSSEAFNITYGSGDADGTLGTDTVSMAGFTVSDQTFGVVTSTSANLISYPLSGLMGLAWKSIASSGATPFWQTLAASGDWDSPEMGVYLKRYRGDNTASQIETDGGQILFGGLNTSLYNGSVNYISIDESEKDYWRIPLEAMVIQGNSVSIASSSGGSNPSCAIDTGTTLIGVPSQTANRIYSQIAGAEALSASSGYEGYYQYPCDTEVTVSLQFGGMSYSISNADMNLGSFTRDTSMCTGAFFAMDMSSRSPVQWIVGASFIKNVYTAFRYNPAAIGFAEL
In words: May1 Ki determination, fluorometric assay with IQ-2 substrate. Type of data set: biochemical.

As for `CC(C)[C@H](NC(=O)[C@H](CCC(=O)O)NC(=O)C[C@H](O)[C@H](Cc1ccccc1)NC(=O)OCc1ccccc1)C(N)=O` [Compound 3a, (S)-5-(((S)-1-amino-3-methyl-1-oxobutan-2-yl)amino)-4-((3S,4S)-4-(((benzyloxy)carbonyl)amino)-3-hydroxy-5-phenylpentanamido)-5-oxopentanoic acid], the “terminal culture density of yeast” value in data set [1] (H99, YNB minimal medium) is reported as “dose-dependent reductions in terminal culture density”.

Regarding `CCCC[C@H](NC(=O)[C@H](CCC(=O)O)NC(=O)C[C@H](O)[C@H](Cc1ccccc1)NC(=O)OCc1ccccc1)C(N)=O` [Compound 4a, (S)-5-(((S)-1-amino-1-oxohexan-2-yl)amino)-4-((3S,4S)-4-(((benzyloxy)carbonyl)amino)-3-hydroxy-5-phenylpentanamido)-5-oxopentanoic acid], the “terminal culture density of yeast” value in data set [1] (H99, YNB minimal medium) is reported as “dose-dependent reductions in terminal culture density”.

`NC(=O)[C@H](CCc1ccccc1)NC(=O)[C@H](CCC(=O)O)NC(=O)C[C@H](O)[C@H](Cc1ccccc1)NC(=O)OCc1ccccc1` [Compound 13a, (S)-5-(((S)-1-amino-1-oxo-4-phenylbutan-2-yl)amino)-4-((3S,4S)-4-(((benzyloxy)carbonyl)amino)-3-hydroxy-5-phenylpentanamido)-5-oxopentanoic acid]: the “cytotoxicity compared with clinically used protease inhibitors” value in the data set with HepG2 is listed as “on par with or lower than that of clinically used protease inhibitors”. Moreover, the “terminal culture density of yeast at 50 μM” value in data set [1] (H99, YNB minimal medium, 48 h, 50 μM) is on record as “nearly phenocopying the may1Δ mutant”. For the same molecule, the “terminal culture density of yeast” value in data set [1] (H99, YNB minimal medium) is listed as “dose-dependent reductions in terminal culture density”. In addition, the “culture density during logarithmic phase growth” value in data set [1] (H99, unbuffered YNB, 50 μM) is reported as “achieved similar densities to 1b- or DMSO-treated controls during the logarithmic phase growth”. Besides, the “saturation density phenotype in buffered medium” value in data set [1] (YNB with 50 mM MES, pH 6.5, 50 μM) is “eliminated the saturation density phenotype”. Moreover, the “culture density of may1Δ yeast” value in data set [1] (may1Δ strain, unbuffered YNB, 50 μM) was “did not further reduce culture densities during either the logarithmic or the stationary phase”. For the same molecule, in the data set with HIV-1 Pr wild-type, the “inhibition of wild-type HIV-1 Pr (in words)” value was “potent, subnanomolar inhibitor”. In data set [2], the “Ki for three drug resistance-associated HIV-1 Pr mutants” value is 0.024 to 0.32 nM.

For the molecule `CC(C)CC(=O)N[C@H](C(=O)N[C@H](C(=O)N[C@@H](CC(C)C)[C@@H](O)CC(=O)N[C@@H](C)C(=O)N[C@@H](CC(C)C)[C@@H](O)CC(=O)O)C(C)C)C(C)C` [PepA, pepstatin A] (Isovaleryl-VV[Sta]A[Sta]-OH), on May1, the Ki (usually the equilibrium dissociation constant of an inhibitor or competing ligand from its target) stood at 1.3 ± 0.1 nM.

The molecule `CC(=O)N[C@H](C(=O)N[C@H](C(=O)N[C@@H](CC(C)C)[C@@H](O)CC(=O)N[C@@H](C)C(=O)N[C@@H](CC(C)C)[C@@H](O)CC(=O)O)C(C)C)C(C)C` [acetyl pepstatin] (Ac-VV[Sta]A[Sta]-OH) came in with a Ki on May1 of 3.3 ± 0.1 nM.
